The values that follow come from US20260176266A1, “PIPERIDINOPYRIMIDINE DERIVATIVE, PREPARATION METHOD THEREFOR AND USE THEREOF IN MEDICINE” (TUOJIE BIOTECH (SHANGHAI) CO., LTD., priority 2022, published 2026).

Holding throughout (type): cell-based
In assay [1] the test system is OVCAR3 ovarian cancer cells. The assay is described as follows: Inhibitory activity against ovarian cancer cells (OVCAR3), CellTiter-Glo viability. Particulars: Homo sapiens, OVCAR-3, 120 h, OVCAR3, 5 days treatment. As to the method: OVCAR3 ovarian cancer cells were cultured in a cell incubator at […] with 5% CO2 using RPMI 1640 medium with […]. On the first day, the cells were plated in a 96-well plate at a cell concentration of 2500 cells/well and cultured overnight in the incubator. On the second day, the cells were treated with compounds. The maximum compound concentration was 10 μM and was 3-fold diluted to obtain 9 concentrations, and the final concentration of DMSO was 0.1%. After the cells were cultured in the incubator for another 5 days, cell viability was tested using the Celltiter Glo assay kit (Promega), and the testing method was consistent with the operational method provided by the kit. Data were processed using GraphPad Prism 8, and IC50 was calculated.
[formula] • X: the logarithm of the compound concentration; Y: % inhibition.

Assay [2] concerns HCT-116 colorectal cancer cells. Description: Inhibitory activity against tumor cells, CellTiter-Glo: HCT-116. Particulars: Homo sapiens, 168 h, HCT-116, 7 days treatment. As for the experimental part:
(§1) MCF7 (ATCC #HTB-22) and T47D (ATCC #HTB-133) breast cancer cells and PANC-1 (ATCC #CRL-1469) pancreatic cancer cells were purchased from ATCC. MDA-MB-231 (Cobioer #CBP60382), HCC1806 (Cobioer #CBP60373), and MDA-MB-468 (Cobioer #CBP60387) breast cancer cells, HCT-116 (Cobioer #CBP60028) colorectal cancer cells, and OCI-AML-3 (Cobioer #CBP60817) and MV-4-11 (Cobioer #CBP60522) leukemia cells were purchased from Nanjing Cobioer Biosciences Co., Ltd.
(§2) OCI-AML-3 was cultured in RPMI 1640 medium with 20% FBS; HCC1806 and T47D were cultured in RPMI 1640 medium with 10% FBS; MCF7, MDA-MB-231, MDA-MB-468, and PANC-1 were cultured in DMEM medium with 10% FBS; MV-4-11 was cultured in IMDM medium with 20% FBS; HCT-116 was cultured in MC′5A medium with 10% FBS.
(§3) Palbociclib-resistant cells were constructed on MCF7 parent cells, designated MCF7 Palbo-R, and the culture conditions were consistent with those of the parent cells. All tumor cells were cultured in a cell incubator at 37° C. with 5% CO2. The cells were seeded at corresponding cell densities (600 cells/well for MDA-MB-231; 500 cells/well for MDA-MB-468, PANC-1, and HCT-116; 200 cells/well for MCF7 and HCC1806; 800 cells/well for MCF7 Palbo-R; 3000 cells/well for OCI-AML-3 and MV-4-11) in 384-well plates and cultured overnight in the incubator. On the second day, the cells were treated with compounds. The maximum compound concentration was 10 μM and was 3-fold diluted to obtain 9 concentrations, each tested in duplicate, and the final concentration of DMSO was 0.1%. The cells continued to be cultured in the incubator, with MDA-MB-231, PANC-1, MDA-MB-468, OCI-AML-3, and MV-4-11 being treated with drugs for 5 days and HCC1806, MCF7, MCF7 Palbo-R, and HCT116 being treated with drugs for 7 days. Cell viability was tested using the Celltiter Glo assay kit (Promega), and the testing method was consistent with the operational method provided by the kit. Readings were taken using an Envision multimode microplate reader. Data were processed using GraphPad Prism 8, and IC50 was calculated.
(§4) Y=Bottom+(Top−Bottom)/(1+10^((Log IC50−X)×HillSlope)). Calculation formula: • X: the logarithm of the compound concentration; Y: % inhibition.

Another assay relates to various tumor cell lines. Description: Inhibitory activity against tumor cells, summary over the panel of Tables 4 and 5. As to conditions: summary of Tables 4 and 5. As for the experimental part: as §1, §2, §3, §4
A further assay has as its system T47D breast cancer cells. Description: Inhibitory activity against tumor cells, CellTiter-Glo: T47D. Particulars: Homo sapiens. As for the experimental part:
as §1, §2, §3, §4

For a further assay, the system named is OCI-AML-3 leukemia cells. Description: Inhibitory activity against tumor cells, CellTiter-Glo: OCI-AML-3. Particulars: Homo sapiens, 120 h, OCI-AML-3, 5 days treatment. As for the experimental part: as §1, §2
as §3, with “calculated. […]” for “calculated.”

A further assay has as its system MV-4-11 leukemia cells. The assay is described as follows: Inhibitory activity against tumor cells, CellTiter-Glo: MV-4-11. As to conditions: Homo sapiens, MV4-11, 120 h, MV-4-11, 5 days treatment. As to the method: as §1, §2
as §3, with “calculated. […]” for “calculated.”

For assay [3], the system named is MDA-MB-231 breast cancer cells. Description: Inhibitory activity against tumor cells, CellTiter-Glo: MDA-MB-231. Particulars: Homo sapiens, 120 h, MDA-MB-231, 5 days treatment. As for the experimental part: as §1, §2
as §3, with “calculated. […]” for “calculated.”

In assay [4] the test system is MCF7 Palbo-R (palbociclib-resistant cells constructed on MCF7). The assay is described as follows: Inhibitory activity against tumor cells, CellTiter-Glo: MCF7 Palbo-R. As to conditions: Homo sapiens, 168 h, 7 days treatment. As to the method: as §1, §2
as §3, with “calculated. […]” for “calculated.”

Assay [5] deals with PANC-1 pancreatic cancer cells. The assay is described as follows: Inhibitory activity against tumor cells, CellTiter-Glo: PANC-1. As to conditions: Homo sapiens, 120 h, PANC-1, 5 days treatment. As for the experimental part:
as §1, §2
as §3, with “calculated. […]” for “calculated.”

Assay [6] deals with HCC1806 breast cancer cells. The assay is described as follows: Inhibitory activity against tumor cells, CellTiter-Glo: HCC1806. As to conditions: Homo sapiens, 168 h, HCC1806, 7 days treatment. As to the method: as §1, §2
as §3, with “calculated. […]” for “calculated.”

For assay [7], the system named is MDA-MB-468 breast cancer cells. Description: Inhibitory activity against tumor cells, CellTiter-Glo: MDA-MB-468. Particulars: Homo sapiens, 120 h, MDA-MB-468, 5 days treatment. As for the experimental part: as §1, §2
as §3, with “calculated. […]” for “calculated.”

A further assay deals with MCF7 breast cancer cells. Description: Inhibitory activity against tumor cells, CellTiter-Glo: MCF7. Particulars: Homo sapiens, 168 h, MCF7, 7 days treatment. As to the method:
as §1, §2
as §3, with “calculated. […]” for “calculated.”

For `[2H]C([2H])([2H])N(C[C@@H](NC(=O)N1Cc2nc(N[C@@H](C)c3ccccn3)ncc2C[C@H]1C)c1ccccc1)C([2H])([2H])[2H]` [Example 19, (R)—N—((S)-2-(Bis(methyl-d3)amino)-1-phenylethyl)-6-methyl-2-(((S)-1-(pyridin-2-yl)ethyl)amino)-5,8-dihydropyrido[3,4-d]pyrimidine-7(6H)-carboxamide], the values for the IC50 (in [1]; in [2]; with T47D breast cancer cells) were 26.1 nM, 29.2 nM and 14.1 nM, respectively. Moreover, the “inhibitory activity against the various tumor cell lines (in words)” value in the assay on various tumor cell lines is reported as “high inhibitory activity”.

As for `CC1Cc2cnc(NC3CCOCC3)nc2CN1C(=O)N[C@H](CN(C)C)c1ccccc1` (stereo partly drawn) [Example 10, N—((S)-2-(Dimethylamino)-1-phenylethyl)-6-methyl-2-((tetrahydro-2H-pyran-4-yl)amino)-5,8-dihydropyrido[3,4-d]pyrimidine-7(6H)-carboxamide], in assay [1], the IC50 turned out to be 42.6 nM.

In [1], `C#Cc1cccc([C@@H]2CN(C)CC[C@H]2C(=O)N2Cc3nc(NCc4ccn(C)n4)ncc3C[C@H]2C)c1` [Compound 1-2, ((3R,4R)-3-(3-Ethynylphenyl)-1-methylpiperidin-4-yl)((R)-6-methyl-2-(((1-methyl-1H-pyrazol-3-yl)methyl)amino)-5,8-dihydropyrido[3,4-d]pyrimidin-7(6H)-yl)methanone] returned an IC50 of 11.5 nM.

In [1], `C[C@@H]1Cc2cnc(NC3Cc4ccccc4C3)nc2CN1C(=O)N[C@H](CN(C)C)c1ccccc1` [Example 7, (R)-2-((2,3-Dihydro-1H-inden-2-yl)amino)-N—((S)-2-(dimethylamino)-1-phenylethyl)-6-methyl-5,8-dihydropyrido[3,4-d]pyrimidine-7(6H)-carboxamide] returned an IC50 of 6.44 nM.

`C[C@@H]1Cc2cnc(N[C@H](C)c3ccccc3)nc2CN1C(=O)N[C@H](CN(C)C)c1ccccc1` [Example 5, (R)—N—((S)-2-(Dimethylamino)-1-phenylethyl)-6-methyl-2-(((R)-1-phenylethyl)amino)-5,8-dihydropyrido[3,4-d]pyrimidine-7(6H)-carboxamide] gave an IC50 in [1] of 81.2 nM.

On to `C[C@@H]1Cc2cnc(Nc3cnn(CC4CC4)c3)nc2CN1C(=O)N[C@H](CN(C)C)c1ccccc1` [Example 16, (R)-2-((1-(Cyclopropylmethyl)-1H-pyrazol-4-yl)amino)-N—((S)-2-(dimethylamino)-1-phenylethyl)-6-methyl-5,8-dihydropyrido[3,4-d]pyrimidine-7(6H)-carboxamide], for which the IC50 in assay [1] came to 9.99 nM.

For the molecule `CCN(C)C[C@@H](NC(=O)N1Cc2nc(NCc3ccn(C)n3)ncc2C[C@H]1C)c1ccccc1` [Example 8, (R)—N—((S)-2-(Ethyl(methyl)amino)-1-phenylethyl)-6-methyl-2-(((1-methyl-1H-pyrazol-3-yl)methyl)amino)-5,8-dihydropyrido[3,4-d]pyrimidine-7(6H)-carboxamide], in [1], the IC50 was 58.3 nM.

As for `[2H]C([2H])([2H])n1ccc(CNc2ncc3c(n2)CN(C(=O)N[C@H](CN(C)C)c2ccccc2)[C@H](C)C3)n1` [Example 14, (R)—N—((S)-2-(Dimethylamino)-1-phenylethyl)-6-methyl-2-(((1-(methyl-d3)-1H-pyrazol-3-yl)methyl)amino)-5,8-dihydropyrido[3,4-d]pyrimidine-7(6H)-carboxamide], the IC50 in assay [1] came out at 40.5 nM.

In turn, `C[C@@H]1Cc2cnc(Nc3cnn(C)c3)nc2CN1C(=O)N[C@H](CN(C)C)c1ccccc1` [Example 17, (R)—N—((S)-2-(Dimethylamino)-1-phenylethyl)-6-methyl-2-((1-methyl-1H-pyrazol-4-yl)amino)-5,8-dihydropyrido[3,4-d]pyrimidine-7(6H)-carboxamide] returned an IC50 in [1] of 22.5 nM.

For the molecule `[2H]C([2H])([2H])N(C[C@@H](NC(=O)N1Cc2nc(NCc3ccn(C)n3)ncc2C[C@H]1C)c1ccccc1)C([2H])([2H])[2H]` [Example 12, (R)—N—((S)-2-(Bis(methyl-d3)amino)-1-phenylethyl)-6-methyl-2-(((1-methyl-1H-pyrazol-3-yl)methyl)amino)-5,8-dihydropyrido[3,4-d]pyrimidine-7(6H)-carboxamide], the IC50 in the assay with OCI-AML-3 leukemia cells was determined as 47.1 nM; in the assay on MV-4-11 leukemia cells, 27.3 nM; in assay [3], 25.8 nM; in assay [4], 43.3 nM; in assay [1], 33.9 nM; in assay [5] it was 50.3 nM. The IC50 in assay [6] was 28.5 nM; in [2] it was 66 nM; in assay [7] it was 32.4 nM; in the assay with T47D breast cancer cells, 41.5 nM; in the assay with MCF7 breast cancer cells it was 21.7 nM. The “inhibitory activity against the various tumor cell lines (in words)” value in the assay on various tumor cell lines is “high inhibitory activity”.

In assay [1], `C[C@H](Nc1ncc2c(n1)CN(C(=O)N[C@H](CN(C)C)c1ccccc1)[C@H](C)C2)c1ccccc1` [Example 9, (R)—N—((S)-2-(Dimethylamino)-1-phenylethyl)-6-methyl-2-(((S)-1-phenylethyl)amino)-5,8-dihydropyrido[3,4-d]pyrimidine-7(6H)-carboxamide] returned an IC50 of 13.8 nM.

In the case of `C[C@@H]1Cc2cnc(NCc3ccn(C)n3)nc2CN1C(=O)N[C@H](CN(C)C)c1cccc(Cl)c1` [Example 13, (R)—N—((S)-1-(3-Chlorophenyl)-2-(dimethylamino)ethyl)-6-methyl-2-(((1-methyl-TH-pyrazol-3-yl)methyl)amino)-5,8-dihydropyrido[3,4-d]pyrimidine-7(6H)-carboxamide], in assay [1], it took 21.7 nM to reach half-maximal inhibition (IC50).

As for `Cc1cc(Nc2ncc3c(n2)CN(C(=O)N[C@H](CN(C)C)c2ccccc2)[C@H](C)C3)ccn1` [Example 15, (R)—N—((S)-2-(Dimethylamino)-1-phenylethyl)-6-methyl-2-((2-methylpyridin-4-yl)amino)-5,8-dihydropyrido[3,4-d]pyrimidine-7(6H)-carboxamide], in assay [1], the IC50 came out at 26.7 nM.
